Assay results taken from US20060058383A1 (priority 2004, published 2006).

What was measured:
[1] = tested on: HL-60 cells; assay: MTT assay, in vitro cytotoxic activity before and after storage of drug solutions; type: cell-based, human; settings: pH 7.0, 72 h drug incubation
[2] = tested on: human lymphoma cells (Raji); assay: Apoptosis, annexin-V/PI flow cytometry; type: cell-based; settings: for apoptotic cells: 30 μM in combination with 100 ng/ml rapamycin; for apoptosis: 30 μM
From the text: Because the mTOR pathway plays an important role in promoting cellular nutrient metabolism and cell growth, and function to enhance cell survival downstream of the P13K/Akt pathway, the present inventors postulated that a simultaneous inhibition of mTOR and glycolysis, which serve as a major metabolic pathway for ATP generation in cancer cells, would severely impact cellular energy metabolism and have a potent cytotoxic effect against malignant cells. To test this possibility, rapamycin was used as an agent to inhibit mTOR, and glycolycin (3-bromo-2-oxopropionate, abbreviated herein as 3-BrOP) to inhibit glycolysis.
Cell growth inhibition was determined by direct counting of the cells after they were treated with rapamycin, 3-BrOP, or their combination. A Coulter Z2 Particle Count & Size Analyzer was used to determine cell counts at 24 h, 48 h, and 72 h after drug incubation. Apoptosis was measured by flow cytometric analysis of cells stained with annexin V-FITC and propidium iodide (PI). Cells were treated with the indicated compounds under various incubation conditions as described in the figure legends. The samples were collected, washed with cold PBS, and then suspended in annexin-V binding buffer. The cells were stained with annexin V-FITC for 15 min at room temperature, washed, and then stained with PI. The samples were analyzed using a FACSCalibur flow cytometer equipped with CELLQuestPro software (Becton-Dickinson, San Jose, Calif.).

[3] = tested on: HL-60 leukemia cells; assay: Drug combination index, median-effect analysis; type: cell-based, human; settings: combination with rapamycin (100 ng/ml), 24 h; CI less than 1 = synergistic
Method: FIGS. 35A-35D show synergistic cytotoxic effect of rapamycin and glycolycin (3-BrOP) in human lymphoma and leukemia cells. In FIG. 35A, the human lymphoma Raji cells were treated with 3-BrOP (30 μM), rapamycin (100 ng/ml), or their combinations as indicated, and apoptosis was measured by flow cytometry analysis after the cells were double-stained with annexin-V and PI as described in the Examples. In case of drug combination, cells were first treated with rapamycin for 18 h before addition of 3-BrOP and incubated for an additional 24 h or 48 h. In FIG. 35B, there is concentration-dependent induction of loss of cell viability by 3-BrOP in the presence and absence of rapamycin (100 ng/ml, 24 h) in Raji cells. Cells were double-stained with annexin-V and PI followed by flow cytometry analysis, and viable cells were expressed as % of control. […] Cell viability was determined as described above.
The above observations prompted the present inventors to use a formal drug combination analysis to determine if rapamycin and 3-BrOP have a synergistic effect. […] Cells were treated with various concentrations of 3-BrOP in the presence of a fixed concentration of rapamycin (100 ng/ml) for 24 h, and the percentage of apoptotic cells was quantitated by flow cytometry analysis using annexin-V/PI double staining. […]

[4] = tested on: Raji cells; assay: Cellular ATP pool by HPLC; type: cell-based, human
Method: HPLC analysis was then used to determine cellular ATP pool in an attempt to understand the biochemical basis of the synergistic activity of rapamycin and 3-BrOP. Raji cells were treated with various concentrations of 3-BrOP in the presence and absence of rapamycin (100 ng/ml) for 6 h, and cellular ATP and other nucleotide pools were measured by HPLC analysis as described in Examples herein.
Because this ATP depletion occurred before apoptosis became detectable, it seems that the enhancement of ATP depletion might be a biochemical mechanism by which rapamycin promote the cytotoxic effect of 3-BrOP. […]
After cells were treated with rapamycin and 3-BrOP under the desired conditions, cellular glucose uptake was measured by incubating the cells in glucose-free RPMI 1640 media with 0.2 μCi/ml of [^3H]-2-deoxyglucose (specific activity, 40 Ci/mmol) for 60 min. After the samples were washed three times with cold PBS, the radioactivity in the cell pellets was quantified by liquid scintillation counting. […] Intracellular nucleotides were extracted from the cells with 0.4 N of perchloric acid (PCA) for 10 min in ice-bath, neutralization with concentrated KOH to pH 7.0, and analyzed by HPLC analysis as described previously (Xu et al., 2005; Seymour et al., 1996). […] The relative cellular ATP levels were expressed as percent of the control cells.

[5] = tested on: Raji cells; assay: Cellular glucose uptake, [3H]-2-deoxyglucose; type: cell-based, human; settings: 2 h
Method: After the samples were washed three times with cold PBS, the radioactivity in the cell pellets was quantified by liquid scintillation counting. […] Intracellular nucleotides were extracted from the cells with 0.4 N of perchloric acid (PCA) for 10 min in ice-bath, neutralization with concentrated KOH to pH 7.0, and analyzed by HPLC analysis as described previously (Xu et al., 2005; Seymour et al., 1996). The intracellular ATP contents were calculated using the ATP standard curve generated under identical HPLC conditions, and normalized by equal cell number. The relative cellular ATP levels were expressed as percent of the control cells.

[6] = tested on: cancer cells; assay: In vitro anticancer activity versus other glycolytic inhibitors; type: cell-based
[7] = Stability of neutral drug solution on storage
[8] = mouse, in vivo

For `CCCOC(=O)C(=O)CBr` [Glycolycin, propyl 3-bromo-2-oxopropionate], the “% Cell Survival” value ([1]; 5 μM, fresh drug solution) was 19.3 ± 5.7%, the “% Cell Survival” value ([1]; 10 μM, drug stored for 3 weeks at 4° C.) was 3.0 ± 1.3% and the “% Cell Survival” value ([1]; 10 μM, fresh drug solution) was 2.5 ± 0.8%. The “% Cell Survival” value ([1]; 30 μM, drug stored for 3 weeks at 4° C.) was 2.9 ± 1.2%, the “% Cell Survival” value ([1]; 30 μM, fresh drug solution) was 3.7 ± 0.6% and the “% Cell Survival” value ([1]; 100 μM, drug stored for 3 weeks at 4° C.) was 2.5 ± 0.9%. The “% Cell Survival” value ([1]; 100 μM, fresh drug solution) was 3.5 ± 1.7%, the apoptotic cells ([2]; 24 h) was 38% and the apoptotic cells ([2]; 48 h) was 79%. The apoptosis ([2]; 24 h) was 19%, the apoptosis ([2]; 48 h) was 49% and the “drug combination index (CI)” value [3] was < 1.0. The “cellular ATP pool” value ([4]; 6-h treatment after pre-incubation with 100 ng/ml rapamycin for 18 h) was “significantly enhanced the depletion of cellular ATP”, the “cellular ATP pool” value ([4]; various concentrations, 6 h) was “concentration-dependent decrease” and the “decrease of glucose uptake” value ([5]; 30 μM) was 33%. The “decrease of glucose uptake” value ([5]; 50 μM) was 71%, the inhibition at 30 µM ([5]; Homo sapiens, Raji, 30 μM, in the presence of rapamycin (100 ng/ml, 18 h pre-treatment)) was 70% and the inhibition at 50 µM ([5]; Homo sapiens, Raji, 50 μM, combination with 100 ng/ml of rapamycin (18 h pre-treatment)) was 94%. For the same molecule, the “potency as measured by IC50 relative to currently available glycolytic inhibitors with a similar mechanism of action” value [6] was 10-20 fold, the “activity of solution after storage” value ([7]; kept at 4° C. for 3 weeks) was “remained stable” and the “stability of solution at neutral pH” value ([7]; pH 7.0, kept at 4° C.) was “stable”. The toxicity in mice [8] was “No obvious toxicity” and the “toxicity in animals, such as mice” value ([8]; 5 mg/kg) was “no apparent toxicity”.
